Laboratory results as given in patent publication US8933232B2, “1,3,4-oxadiazole and 1,3,4-thiadiazole beta-lactamase inhibitors” (priority 2012, dated 2015).
Structures can show the parent of a compound that is named as a salt.

System: bacterial strains that express KPC β-lactamases
Experiment: Synergy MIC / standard BLI potentiation MIC assay against strains expressing KPC β-lactamases
Type: cell-based
Conditions: in the presence of a β-lactam; comparator Avibactam
Description: The experimental protocol was performed according to Clinical and Laboratory Standards Institute (CLSI) guidelines with modifications as described below (CLSI guidelines can be derived from the CLSI document M07-A9 published in January 2012: “Methods for Dilution Antimicrobial Susceptibility Tests for Bacteria That Grow Aerobically; Approved Standard-Ninth Edition”).
To prepare for MIC testing, frozen glycerol stocks of clinical isolates (Klebsiella pneumoniae, Eschericia coli, Enterobacter spp, Citrobacter spp, or Pseudomonas aeruginosa) were used to streak for isolated colonies on rich, non-selective, tryptic soy agar containing 5% sheep's blood (TSAB). Frozen glycerol stocks of laboratory engineered, isogenic E. coli strains, which contain cloned β-lactamase expressing plasmids were used to streak for isolated colonies on rich, selective LB agar supplemented with 25 μg/mL tetracycline to maintain the plasmid. All strains were incubated at 37° C. for 18-24 hrs.
On the day of testing, primary cultures were started by scraping off 5-10 colonies from the TSAB plates containing clinical strains or the tetracycline supplemented LB plates containing engineered strains. The clinical strain material was suspended in ˜5 mL of cation adjusted Mueller Hinton Broth (CAMHB) in 14 mL culture tubes. The engineered strain material was suspended in CAMHB (supplemented with 25 μg/mL tetracycline) in 14 mL culture tubes. All strains were incubated at 37° C. with aeration (200 rpm) for ˜2 hrs until the optical density at 600 nm (OD600) was >0.1.
The two compound components of the assay were each diluted in CAMHB and added to the 96-well broth microdilution assay plates. 50 μL of the β-lactam was added to each well of the assay plate in 2-fold dilutions with final concentrations ranging from 128 to 0.13 μg/mL. 25 μL, of the BLI compound was added to all wells in the broth microdilution plates at a final concentration of 4 μg/mL. Inoculum cultures were prepared by standardizing the primary cultures to OD600=0.1 and then adding 20 μL of the adjusted primary culture per 1 mL CAMHB for clinical strains or CAMHB (supplemented with tetracycline at 100 μg/mL) for engineered strains, so that the final inoculum density was ˜10^5 colony forming units per milliliter. Diluted inoculum cultures were used to inoculate 25 μl, per well in 96-well broth microdilution assay plates. The final volume of each well was 100 μL and contained a β-lactam at different concentrations, a BLIcompound at 4 μg/mL concentration, the bacterial culture at an OD600 of approximately 0.001 and when necessary tetracycline at 25 μg/mL.
Plates were incubated for 18-20 hours at 37° C. with aeration (200 rpm). Following incubation, growth was confirmed visually placing plates over a viewing apparatus (stand with a mirror underneath) and then OD600 was measured using a SpectraMax 340PC384 plate reader (Molecular Devices, Sunnyvale, Calif.). Growth was defined as turbidity that could be detected with the naked eye or achieving minimum OD600 of 0.1. MIC values were defined as the lowest concentration producing no visible turbidity.
The synergy MIC (sMIC) assay determines the concentration of the BLI required to potentiate the activity of a fixed concentration of a β-lactam antibiotic against β-lactamase producing bacterial strains. The experimental protocol was performed according to Clinical and Laboratory Standards Institute (CLSI) guidelines with modifications as described below (CLSI guidelines can be derived from the CLSI document M07-A9 published in January 2012: “Methods for Dilution Antimicrobial Susceptibility Tests for Bacteria That Grow Aerobically; Approved Standard-Ninth Edition”). […]

SMILES	more active than Avibactam for at least one bacterial strain that expresses KPC β-lactamase and/or better spectrum of activity against KPC strains
O=C1N2C[C@@H](CC[C@H]2c2nnc(COC3CNC3)o2)N1OS(=O)(=O)O [Compound 744, (2S,5R)-2-(5-((azetidin-3-yloxy)methyl)-1,3,4-oxadiazol-2-yl)-7-oxo-1,6-diazabicyclo[3.2.1]octan-6-yl hydrogen sulfate]	more active than Avibactam
N[C@H]1C[C@@H](Cc2nnc([C@@H]3CC[C@@H]4CN3C(=O)N4OS(=O)(=O)O)o2)C1 [Compound 728, (2S,5R)-2-(5-(((1s,3R)-3-aminocyclobutyl)methyl)-1,3,4-oxadiazol-2-yl)-7-oxo-1,6-diazabicyclo[3.2.1]octan-6-yl hydrogen sulfate]	more active than Avibactam
C[n+]1ccc(-c2nnc([C@@H]3CC[C@@H]4CN3C(=O)N4OS(=O)(=O)[O-])o2)cc1 [Compound 782, (2S,5R)-2-(5-(1-methylpyridin-1-ium-4-yl)-1,3,4-oxadiazol-2-yl)-7-oxo-1,6-diazabicyclo[3.2.1]octan-6-yl sulfate]	more active than Avibactam
NCCCCc1nnc([C@@H]2CC[C@@H]3CN2C(=O)N3OS(=O)(=O)O)o1 [Compound 735, (2S,5R)-2-(5-(4-aminobutyl)-1,3,4-oxadiazol-2-yl)-7-oxo-1,6-diazabicyclo[3.2.1]octan-6-yl hydrogen sulfate]	more active than Avibactam
N[C@H]1C[C@H](c2nnc([C@@H]3CC[C@@H]4CN3C(=O)N4OS(=O)(=O)O)o2)C1 [Compound 727, (2S,5R)-2-(5-((1r,3S)-3-aminocyclobutyl)-1,3,4-oxadiazol-2-yl)-7-oxo-1,6-diazabicyclo[3.2.1]octan-6-yl hydrogen sulfate]	more active than Avibactam
N[C@@H]1CC[C@H](c2nnc([C@@H]3CC[C@@H]4CN3C(=O)N4OS(=O)(=O)O)o2)C1 [Compound 729, (2S,5R)-2-(5-((1S,3R)-3-aminocyclopentyl)-1,3,4-oxadiazol-2-yl)-7-oxo-1,6-diazabicyclo[3.2.1]octan-6-yl hydrogen sulfate]	more active than Avibactam
N=C(N)NCCc1nnc([C@@H]2CC[C@@H]3CN2C(=O)N3OS(=O)(=O)O)s1 [Compound 794, (2S,5R)-2-(5-(2-guanidinoethyl)-1,3,4-thiadiazol-2-yl)-7-oxo-1,6-diazabicyclo[3.2.1]octan-6-yl hydrogen sulfate]	more active than Avibactam
NC1CCN(CCc2nnc([C@@H]3CC[C@@H]4CN3C(=O)N4OS(=O)(=O)O)o2)CC1 [Compound 775, (2S,5R)-2-(5-(2-(4-aminopiperidin-1-yl)ethyl)-1,3,4-oxadiazol-2-yl)-7-oxo-1,6-diazabicyclo[3.2.1]octan-6-yl hydrogen sulfate]	more active than Avibactam
CNCCc1nnc([C@@H]2CC[C@@H]3CN2C(=O)N3OS(=O)(=O)O)o1 [Compound 722, (2S,5R)-2-(5-(2-(methylamino)ethyl)-1,3,4-oxadiazol-2-yl)-7-oxo-1,6-diazabicyclo[3.2.1]octan-6-yl hydrogen sulfate]	more active than Avibactam
CNCCCc1nnc([C@@H]2CC[C@@H]3CN2C(=O)N3OS(=O)(=O)O)o1 [Compound 734, 2S,5R)-2-(5-(3-(methylamino)propyl)-1,3,4-oxadiazol-2-yl)-7-oxo-1,6-diazabicyclo[3.2.1]octan-6-yl hydrogen sulfate]	more active than Avibactam
N=C(N)NCCc1nnc([C@@H]2CC[C@@H]3CN2C(=O)N3OS(=O)(=O)O)o1 [Compound 705, (2S,5R)-2-(5-(2-guanidinoethyl)-1,3,4-oxadiazol-2-yl)-7-oxo-1,6-diazabicyclo[3.2.1]octan-6-yl hydrogen sulfate]	more active than Avibactam
O=C1N2C[C@@H](CC[C@H]2c2nnc(CCCC3CNC3)o2)N1OS(=O)(=O)O [Compound 743, (2S,5R)-2-(5-(3-(azetidin-3-yl)propyl)-1,3,4-oxadiazol-2-yl)-7-oxo-1,6-diazabicyclo[3.2.1]octan-6-yl hydrogen sulfate]	more active than Avibactam
NCCCc1nnc([C@@H]2CC[C@@H]3CN2C(=O)N3OS(=O)(=O)O)o1 [Compound 720, (2S,5R)-2-(5-(3-aminopropyl)-1,3,4-oxadiazol-2-yl)-7-oxo-1,6-diazabicyclo[3.2.1]octan-6-yl hydrogen sulfate]	more active than Avibactam
O=C1N2C[C@@H](CC[C@H]2c2nnc([C@H]3CCNC3)o2)N1OS(=O)(=O)O [Compound 758, (2S,5R)-7-oxo-2-(5-((S)-pyrrolidin-3-yl)-1,3,4-oxadiazol-2-yl)-1,6-diazabicyclo[3.2.1]octan-6-yl hydrogen sulfate]	more active than Avibactam
N=C(N)NC1CC(Cc2nnc([C@@H]3CC[C@@H]4CN3C(=O)N4OS(=O)(=O)O)o2)C1 (stereo partly drawn) [Compound 752, (2S,5R)-2-(5-(β-guanidinocyclobutyl)methyl)-1,3,4-oxadiazol-2-yl)-7-oxo-1,6-diazabicyclo[3.2.1]octan-6-yl hydrogen sulfate]	more active than Avibactam
N[C@@H]1CN[C@@H](c2nnc([C@@H]3CC[C@@H]4CN3C(=O)N4OS(=O)(=O)O)o2)C1 [Compound 763, (2S,5R)-2-(5-((2R,4S)-4-aminopyrrolidin-2-yl)-1,3,4-oxadiazol-2-yl)-7-oxo-1,6-diazabicyclo[3.2.1]octan-6-yl hydrogen sulfate]	more active than Avibactam
N=C(N)N1CC(c2nnc([C@@H]3CC[C@@H]4CN3C(=O)N4OS(=O)(=O)O)o2)C1 [Compound 709, (2S,5R)-2-(5-(1-carbamimidoylazetidin-3-yl)-1,3,4-oxadiazol-2-yl)-7-oxo-1,6-diazabicyclo[3.2.1]octan-6-yl hydrogen sulfate]	more active than Avibactam
NCCc1nnc([C@@H]2CC[C@@H]3CN2C(=O)N3OS(=O)(=O)O)o1 [Compound 703, (2S,5R)-2-(5-(2-aminoethyl)-1,3,4-oxadiazol-2-yl)-7-oxo-1,6-diazabicyclo[3.2.1]octan-6-yl hydrogen sulfate]	more active than Avibactam
N=C(N)NCc1nnc([C@@H]2CC[C@@H]3CN2C(=O)N3OS(=O)(=O)O)s1 [Compound 721, (2S,5R)-2-(5-(guanidinomethyl)-1,3,4-thiadiazol-2-yl)-7-oxo-1,6-diazabicyclo[3.2.1]octan-6-yl hydrogen sulfate]	more active than Avibactam
N=C(N)N1CC(Cc2nnc([C@@H]3CC[C@@H]4CN3C(=O)N4OS(=O)(=O)O)o2)C1 [Compound 741, (2S,5R)-2-(5-((1-carbamimidoylazetidin-3-yl)methyl)-1,3,4-oxadiazol-2-yl)-7-oxo-1,6-diazabicyclo[3.2.1]octan-6-yl hydrogen sulfate]	more active than Avibactam
